From PubChem BioAssay AID489024 (Sanford-Burnham Center for Chemical Genomics, 2010) come the findings set out here.

Each structure is given as a SMILES string. Calls of active or inactive are those of the source.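 Rule for the calls: active = compounds whose mean EC50, the dose giving half the maximal reporter activation, is at or below a set limit; inactive = the rest.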 A value given as a limit tells only on which side of the number the result lay.

The experiment concerns the target CHO-CHOP luciferase reporter, UPR activation, luminescence. Briefly: activators of PERK-eIF2a-CHOP UPR arm, confirmation, CHO-CHOP cells, luciferase luminescence (AID 489024).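 Note: compounds added alone to reporter cells with no tunicamycin stress co-treatment.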
Consider `CN(c1ccccc1)S(=O)(=O)c1cccc(C(=O)NCCc2ccc(O)c(O)c2)c1`, for which the EC50 was 7.53 µM.

As to `COC(=O)c1cc(=O)n(CCc2ccc(OC)cc2)c(=Nc2ccc(F)c(Cl)c2)s1`, the EC50 result is “inactive”.

With `CCN(CC)c1ccc(C=C2C(=O)NC(=S)NC2=O)cc1`, the EC50 is 11.9 µM.

`O=C(Oc1ccccc1/C=C\C(=O)c1cc2ccccc2o1)c1ccccc1`: the EC50 is 12.9 µM.

For the compound `CC(=O)/C(=C/c1ccccc1)C(=O)Nc1ccccc1C`, the EC50 result was “inactive”.

In the case of `Cc1ccc(C(=O)/C=C/C(=O)c2ccc(C)cc2)cc1`, the EC50 is 8.35 µM.

Consider `Cc1ccccc1/C=C/C(=O)c1ccc([N+](=O)[O-])o1`, for which the EC50 is 9.86 µM.

Take `Cc1cc(N2CCN(c3ccc([N+](=O)[O-])c4cccnc34)CC2)c2ccccc2n1`: the EC50 entry was “inactive”.

On to `CCOC(=O)c1cc(-c2ccc(/C=C3/C(=O)N(c4ccc(C(=O)O)cc4)N=C3C)o2)ccc1Cl`, for which the EC50 is 10.8 µM.

On to `O=C1C(CSCc2ccccc2)NC(=S)N1c1ccccc1` (stereo unspecified), for which the EC50 entry was “inactive”.

For the compound `COc1ccc(N=C2S/C(=C\c3ccc(N4CCOCC4)o3)C(=O)N2CCc2c[nH]c3ccccc23)cc1`, the EC50 was 18.4 µM.

`Cc1ccc(NC(=O)c2ccc(N/N=C/c3cccc(O)c3)c([N+](=O)[O-])c2)cc1`: the EC50 is 8.03 µM.

Turning to `CCOC(=O)c1c(NC(C)=O)sc2c1CCC(C=O)=C2Sc1ccccc1`, the EC50 is 7.12 µM.

Regarding `Cc1ccc(Sc2nc(-c3ccccc3)nnc2C(F)(F)F)cc1`, the EC50 was > 80 µM (inactive).

Consider `COCc1ccc(O)c2ncccc12`, for which the 50% effective concentration (EC50) was 15.1 µM.

Take `C[C@@H]1C[C@@H]2O[C@H]2/C=C\C=C\C(=O)Cc2c(Cl)c(O)cc(O)c2C(=O)O1`: the EC50 is 5.32 µM.

Turning to `COc1cc(/C=C2\CC(C(C)(C)C)C/C(=C\c3cc(OC)c(OC)c(OC)c3)C2=O)cc(OC)c1OC` (stereo unspecified), the EC50 was 6.19 µM.

`Cc1cccc(C)c1NC(=O)c1nc(S(=O)(=O)Cc2ccccc2)ncc1Cl`: the concentration for a half-maximal effect (EC50) is 12.3 µM.

For `CC(C)[C@H](NC(=O)OC(C)(C)C)c1nnc(S(=O)(=O)Cc2c(F)cccc2Cl)o1`, the EC50 is > 80 µM (inactive).

On to `CCOc1cc(C=C(C(=O)OC)C(=O)OC)ccc1OCc1ccc([N+](=O)[O-])cc1`, for which the EC50 is 6.82 µM.

With `O=C(NCc1cccnc1)/C(=C\c1ccc(-c2ccc(Br)cc2)o1)S(=O)(=O)c1ccccc1`, the EC50 was 6.67 µM.

On to `Cc1ccc(Cc2cnc(NC(=O)/C(C#N)=C/c3ccc(-c4cccc([N+](=O)[O-])c4)o3)s2)cc1`, for which the EC50 is 14.7 µM.

`CCOc1cc(/C=C2\CN(CC)C/C(=C\c3ccc(O)c(OCC)c3)C2=O)ccc1O`: the EC50 is 6.25 µM.

`O=C(N/N=C/c1ccccn1)c1cc(-c2ccc(Br)cc2)nc2ccccc12`: the EC50 is 2.4 µM.

For `C=CCn1c(O)c(N=NC(=S)Nc2ccccc2F)c2cc(S(=O)(=O)N3CCOCC3)ccc21`, the EC50 is 7.34 µM.

For `CCOC(=O)N1CCN(S(=O)(=O)c2ccc(C(=O)Nc3nc4c(s3)CC(C)CC4)cc2)CC1` (stereo unspecified), the EC50 is > 80 µM (inactive).

On to `C/C(=N\NC(=O)c1ccccc1OCc1ccc(F)cc1)c1ccccn1`, for which the half-maximal effective concentration (EC50) was 4.89 µM.

Turning to `O=C(COC(=O)c1ccccc1C(=O)c1ccc(Cl)c([N+](=O)[O-])c1)NC1CCCCCC1`, the EC50 was > 80 µM (inactive).

Consider `Cc1ccc(S(=O)(=O)Nc2cccc3cccnc23)c([N+](=O)[O-])c1`, for which the 50% effective concentration (EC50) was 7.17 µM.

Consider `CCOC(=O)c1c2ccc(OCC(=O)N/N=C/c3ccc(C)cc3)cc2n2ccccc12`, for which the EC50 was > 80 µM (inactive).

As to `O=C(Oc1c(CN2CCOCC2)cc(Cl)c2cccnc12)c1ccc(F)cc1`, the EC50 result is “inactive”.

For `COc1ccc(NS(=O)(=O)c2ccc3ccccc3c2)c2ncccc12`, the EC50 was 9.28 µM.

For `COc1cc(OC)cc(C(=O)NC(=S)Nc2cc3oc4ccccc4c3cc2OC)c1`, the EC50 entry is “inactive”.

On to `Cc1cc(C(=O)CCl)c(C)n1CC1COc2ccccc2O1` (stereo unspecified), for which the EC50 was 8.22 µM.

`O=C(Nc1nc(-c2ccccn2)cs1)c1cc(Cl)ccc1[N+](=O)[O-]`: the EC50 is 6.29 µM.

On to `CCCN1Cc2cccc(C(=O)Nc3ccc(-c4nc5ccccc5[nH]4)cc3)c2C1=O`, for which the EC50 was > 80 µM (inactive).

With `Cc1ccc(Cc2cnc(NC(=O)/C(C#N)=C/c3ccc(-c4ccc([N+](=O)[O-])cc4)o3)s2)cc1`, the EC50 entry is “inactive”.

`Oc1cc(-c2cccnc2)cc2cccnc12`: the EC50 entry is “inactive”.

Take `O=C(CCN1C(=O)C2C3C=CC(C4CC34)C2C1=O)Oc1cccc2cccnc12` (stereo unspecified): the EC50 was 11.2 µM.

Regarding `CC1(C)CCSC(/C=C/c2ccccc2)=N1`, the EC50 was > 80 µM (inactive).

Turning to `COc1ccc2c(c1)CCc1c(C(=O)Nc3cc(C)n(Cc4ccc(Cl)cc4)n3)noc1-2`, the EC50 was 14 µM.

`CC(C)CNC(=O)c1coc(=O)c(Br)c1`: the EC50 was 12 µM.

For `O=C(N/N=C(\c1ccccc1)c1ccccn1)c1cccc([N+](=O)[O-])c1`, the EC50 is 7.44 µM.

Turning to `CCOC(=O)N1CCN(Cc2cc(Cl)c3cccnc3c2O)CC1`, the EC50 entry is “inactive”.

In the case of `C[C@@H]1CN([C@H](C)CO)C(=O)c2cc(NC(=O)Nc3ccc(C(F)(F)F)cc3)ccc2O[C@H]1CN(C)Cc1ccc(Cl)c(Cl)c1`, the EC50 was > 80 µM (inactive).

As for `CN(C)S(=O)(=O)c1cccc(NC(=O)CSc2cccc3cccnc23)c1`, the EC50 is 7.59 µM.

Regarding `Oc1c(Cl)cc(CN2CCOCC2)c2cccnc12`, the EC50 was 5.93 µM.

With `Oc1c(C(c2ccccn2)N2CCC(Cc3ccccc3)CC2)cc(Cl)c2cccnc12` (stereo unspecified), the EC50 entry was “inactive”.

For the compound `CCCCC1CCC(C(=O)N(CCCC)c2c(N)n(CCCC)c(=O)[nH]c2=O)CC1` (stereo unspecified), the EC50 was > 80 µM (inactive).

With `C/C(=N\NC(=O)c1cc(-c2cccs2)nc2ccccc12)c1ccccn1`, the concentration giving a half-maximal response (EC50) was 4.97 µM.

For `C/C(=N\NC(=O)C(C)Oc1ccc([N+](=O)[O-])cc1)c1ccccn1` (stereo unspecified), the EC50 was 10.1 µM.

Turning to `Cc1ccc(NC(=O)c2nc(S(=O)(=O)Cc3ccccc3C)ncc2Cl)cc1C`, the EC50 was 8.51 µM.

With `Oc1c(CN2CCc3ccccc3C2)cc(Cl)c2cccnc12`, the EC50 was 12 µM.

On to `CCc1cc2c(=O)[nH]c(-c3ccccn3)nc2s1`, for which the EC50 is 2.61 µM.

For `S=C1SCN(Cc2ccco2)CN1Cc1ccco1`, the EC50 is 11.4 µM.

As to `C/C(=N\NC(=O)COc1ccccc1-c1ccccc1)c1ccccn1`, the EC50 is 6.49 µM.

`COc1cc(/C=C2\C(=O)ON=C2c2ccc(Cl)cc2)ccc1O`: the EC50 is 11.8 µM.

For the compound `O=C(/C=C/c1ccc(O)c(O)c1)OCCc1ccccc1`, the EC50 is 0.89 µM.

`COc1cc(/C=C(/C#N)c2nc3ccccc3[nH]2)ccc1OCC(=O)Nc1ccccc1C`: the EC50 was 3.65 µM.

As to `Cc1cccc(-n2ncc(Cl)c(Cl)c2=O)c1`, the EC50 was 7.81 µM.

As to `O=C(Nc1ccc2oc(-c3ccc4ccccc4c3)nc2c1)c1ccc2c(c1)OCCO2`, the EC50 was 19.8 µM.

Take `Cc1ccc(F)cc1N=Cc1c(O)c2ccccc2oc1=O`: the EC50 was 6.17 µM.

For `O=C1CC(c2cccc(Cl)c2)CC(O)=C1C=Nc1ccccc1` (stereo unspecified), the EC50 was 16.2 µM.

For `CC1=CC(C)(C)Nc2ccc(OC(=O)CN3C(=O)C4CCCCC4C3=O)cc21` (stereo unspecified), the EC50 is 8.07 µM.

For `O=[N+]([O-])c1ccccc1S(=O)(=O)Nc1cccc2cccnc12`, the 50% effective concentration (EC50) was 7.67 µM.

`O=C(Nc1ccc(-c2nc3ncccc3o2)cc1)c1ccc([N+](=O)[O-])o1`: the EC50 was 1.08 µM.

As for `COCc1cc(C)nc(OCC(=O)N/N=C/c2ccc(-c3cc([N+](=O)[O-])ccc3Cl)o2)c1C#N`, the EC50 was 14.3 µM.

For the compound `CCCCNC1C(CC)C(CCC)C(C#N)(C#N)C1(C#N)C#N` (stereo unspecified), the EC50 was > 80 µM (inactive).

For `Oc1ccc(/C=N/N2CCCCC2)cc1O`, the EC50 entry was “inactive”.

As to `Cc1cc(C(=O)CCl)c(C)n1CCc1ccc(Cl)cc1`, the EC50 is 7.15 µM.

On to `Cc1cc(C)nc(S/C=C/C(=O)c2ccccc2)n1`, for which the 50% effective concentration (EC50) was 6.72 µM.

Consider `Cc1ccc(CS(=O)(=O)c2ncc(Cl)c(C(=O)Nc3nnc(C(C)C)s3)n2)cc1`, for which the EC50 is > 80 µM (inactive).

On to `COc1ccc(N=c2oc3c(OC)cccc3cc2C(=O)NCc2ccco2)c(OC)c1`, for which the EC50 entry was “inactive”.

For the compound `COC(=O)c1cc(=O)n(Cc2ccc3c(c2)OCO3)c(=Nc2ccc(F)c(Cl)c2)s1`, the EC50 was > 80 µM (inactive).

With `Cn1c(/C=C/c2ccc([N+](=O)[O-])o2)nc2ccccc2c1=O`, the EC50 is 6.93 µM.

Turning to `Oc1ccc(-c2nc(-c3ccc(O)c(O)c3)cs2)cc1`, the EC50 was 9 µM.

`CC1=C/C(=N\OC(=O)/C=C/c2ccccc2)C(C)=CC1=O`: the EC50 is > 80 µM (inactive).

As to `COc1ccc(C2Nc3ccc4ccccc4c3-c3c2c(=O)oc2ccccc32)cc1` (stereo unspecified), the EC50 was > 80 µM (inactive).

For the compound `CCn1c(-c2ccccc2)c(C(=O)CCl)c2ccccc21`, the EC50 was 8.47 µM.

For `O=c1c2ccccc2nc(/C=C/c2ccc([N+](=O)[O-])o2)n1-c1ccc(O)cc1`, the EC50 is 13.3 µM.

On to `COc1ccc(C(=O)C(CN2CCCC2)c2ccccc2)cc1` (stereo unspecified), for which the EC50 was 13.9 µM.

With `CCCn1c(CC)nc([N+](=O)[O-])c1S(=O)(=O)c1ccccc1`, the EC50 is > 80 µM (inactive).

For the compound `COc1ccc(OC)c(Nc2nc(-c3ccc(O)c(O)c3)cs2)c1`, the EC50 is 1.55 µM.

As for `O=C(NCc1cccnc1)/C(=C/c1ccc(-c2ccc(Cl)cc2)o1)S(=O)(=O)c1ccccc1`, the EC50 was 6.18 µM.

Consider `Oc1cc(-c2ccncc2)cc2cccnc12`, for which the EC50 was > 80 µM (inactive).

With `CCOC(=O)c1ccc(N=C2C(=S)N(c3ccc(C(=O)OCC)cc3)C(=N)N2/N=C/c2ccccc2)cc1`, the EC50 is > 80 µM (inactive).

For the compound `CC1=CC(C)(C)Nc2ccc(OC(=O)CN3C(=O)CCC3=O)cc21`, the EC50 was 9.58 µM.

As for `O=C(Nc1ccc(Cl)cc1)/C(=C/c1cccc(O)c1)c1nc2ccccc2s1`, the EC50 is > 80 µM (inactive).

For `CCc1ccccc1NC(=S)N=Nc1c(O)n(C)c2ccc(S(=O)(=O)N3CCOCC3)cc12`, the EC50 is > 80 µM (inactive).

Consider `O=S1(=O)Nc2c(ccc3cccnc23)-c2ccccc21`, for which the EC50 is 3.42 µM.

With `COc1ccc(OC)c(/C=C/C(=O)N2C(=O)c3cccc(N)c3C2=O)c1`, the EC50 result is “inactive”.

The term EC50 denotes the concentration at which the effect is half-maximal.
